Patent publication US20060211573A1, “7-(Akenylamino)triazolopyrimidines, method for the production thereof and use thereof in controlling harmful fungi and substances containing said triazolopyrimidines” (priority 2003, published 2006)

Tested on: Alternaria solani
Assay: Activity against early blight of tomato caused by Alternaria solani (protective spray on tomato leaves)
Type: in vivo
Conditions: 250 ppm active compound, sprayed one day before infection, assessed after 5 days; untreated plants 100% infected
Experimental: The active compounds were prepared, separately or together, as a stock solution with 0.25% by weight of active compound in acetone or DMSO. 1% by weight of the emulsi-fier Uniperol® EL (wetting agent with an emulsifying and dispersing action based on ethoxylated alkylphenols) was added to this solution and appropriately diluted with water to the desired concentration. Leaves of pot plants of the variety “Grope Fleischtomate St. Pierre” were sprayed to runoff point with an aqueous suspension in the active compound concentration given below. On the following day, the leaves were infected with an aqueous suspension of spores of Alternaria solani in 2% Biomalz solution with a concentration of 0.17×10^6 spores/ml. The plants were subsequently placed in a chamber saturated with water vapor at temperatures between 20 and 22° C. After 5 days, leaf infection in the untreated but infected control plants had so extensively developed that the infection could be visually determined in %.

C=CC(C)Nc1c(-c2c(F)cc(F)cc2F)c(Cl)nc2ncnn12 (stereo not shown) [I-1, 5-chloro-6-(2,4,6-trifluorophenyl)-7-(1-methyl-2-propen-1-yl)amino[1,2,4]triazolo[1,5-a]pyrimidine]
leaf infection, visually determined in %: no infection
